Data from patent US12286442B2, “Methods and materials for increasing transcription factor eb polypeptide levels” (University of Pittsburgh—Of the Commonwealth System of …, priority 2019, dated 2025).

Legend:
TFEB = experiment: High content screen measuring TFEB nuclear accumulation (TFEB nuclear/cytosol ratio) in BEAS-2B cells stably expressing TFEB-EGFP; type: cell-based, human; details: 18 hours incubation
Outline: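 BEAS-2B cells stably expressing TFEB-EGFP (~2300–2500 per well) pre-incubated 8 hours, then exposed to serially diluted compounds (DMEM low glucose, 2% FBS) for 18 hours, PFA-fixed and DAPI-stained. Imaged nuclear (DAPI mask) vs cytosolic (expanded mask) TFEB-GFP; activity = minimal concentration raising nuclear/cytosol ratio by 25%.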

BEAS-2B cells = experiment: Toxicity: compound concentration needed to induce greater than 50 percent of cell loss; type: cell-based, human; details: 18 hours incubation
Outline: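 BEAS-2B cells stably expressing TFEB-EGFP treated with serial compound dilutions for 18 h, then PFA-fixed, DAPI-stained and imaged. Toxicity scored as the concentration causing >50% cell loss, binned as ≥25 μM, <25 and >1 μM, or ≤1 μM ("+++").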

In the case of Cc1nc2cc(Nc3nc(-c4ccncc4)nc4ccccc34)ccc2o1 [Compound 37], the “efficacy (minimal compound concentration needed to increase TFEB nuclear/cytosol ratio by 25%)” value (TFEB) is reported as “++ (“++” equals between ≤25 μM and >1 μM)” and the “toxicity (compound concentration needed to induce greater than 50 percent of cell loss)” value (BEAS-2B cells) is reported as “+ (cell loss of greater than 50 percent at a concentration that equals or is greater than 25 μM was represented as)”.

In the case of COc1cccc(Nc2nc(-c3ccncc3)nc3ccccc23)c1 [Compound 190], the “efficacy (minimal compound concentration needed to increase TFEB nuclear/cytosol ratio by 25%)” value (TFEB) is reported as “++ (“++” equals between ≤25 μM and >1 μM)” and the “toxicity (compound concentration needed to induce greater than 50 percent of cell loss)” value (BEAS-2B cells) is reported as “+ (cell loss of greater than 50 percent at a concentration that equals or is greater than 25 μM was represented as)”.

With CC(C)c1nc2ccc(Nc3nc(-c4ccncc4)nc4ncccc34)cc2o1 [Compound 375] the “efficacy (minimal compound concentration needed to increase TFEB nuclear/cytosol ratio by 25%)” value (TFEB) was “+++ (“+++” equals ≤1 μM)” and the “toxicity (compound concentration needed to induce greater than 50 percent of cell loss)” value (BEAS-2B cells) was “+ (cell loss of greater than 50 percent at a concentration that equals or is greater than 25 μM was represented as)”.

COc1cccc2c(Nc3ccc4nc(C(C)C)sc4c3)nc(-c3ccncc3)nc12 [Compound 153] was tested, and the “efficacy (minimal compound concentration needed to increase TFEB nuclear/cytosol ratio by 25%)” value (TFEB) was “++ (“++” equals between ≤25 μM and >1 μM)” and the “toxicity (compound concentration needed to induce greater than 50 percent of cell loss)” value (BEAS-2B cells) was “+ (cell loss of greater than 50 percent at a concentration that equals or is greater than 25 μM was represented as)”.

For Cn1cnc2cc(Nc3nc(-c4ccncc4)nc4ccccc34)ccc21 [Compound 28], the “efficacy (minimal compound concentration needed to increase TFEB nuclear/cytosol ratio by 25%)” value (TFEB) was “+ (“+” equals >25 μM)” and the “toxicity (compound concentration needed to induce greater than 50 percent of cell loss)” value (BEAS-2B cells) was “+ (cell loss of greater than 50 percent at a concentration that equals or is greater than 25 μM was represented as)”.

For COc1ccc(-n2c(=O)c3ccc(C(=O)NCCc4ccccc4)cc3n(Cc3cccc(F)c3)c2=O)cc1 [Compound 215], the “efficacy (minimal compound concentration needed to increase TFEB nuclear/cytosol ratio by 25%)” value (TFEB) was “++ (“++” equals between ≤25 μM and >1 μM)” and the “toxicity (compound concentration needed to induce greater than 50 percent of cell loss)” value (BEAS-2B cells) was “++ (cell loss of greater than 50 percent at a concentration less than 25 μM and greater than 1 μM was represented as)”.

For c1cc(-c2nc(Nc3ccc4[nH]ncc4c3)c3cnccc3n2)ccn1 [Compound 85], the “efficacy (minimal compound concentration needed to increase TFEB nuclear/cytosol ratio by 25%)” value (TFEB) was “+++ (“+++” equals ≤1 μM)” and the “toxicity (compound concentration needed to induce greater than 50 percent of cell loss)” value (BEAS-2B cells) was “+ (cell loss of greater than 50 percent at a concentration that equals or is greater than 25 μM was represented as)”.

For CCc1nc2ccc(Nc3nc(-c4ccncc4)nc4ccc(F)cc34)cc2s1 [Compound 151], the “efficacy (minimal compound concentration needed to increase TFEB nuclear/cytosol ratio by 25%)” value (TFEB) was “+++ (“+++” equals ≤1 μM)” and the “toxicity (compound concentration needed to induce greater than 50 percent of cell loss)” value (BEAS-2B cells) was “+ (cell loss of greater than 50 percent at a concentration that equals or is greater than 25 μM was represented as)”.

Fc1cccc2c(Nc3ccc4cnsc4c3)nc(-c3ccncc3)nc12 [Compound 382] was tested, and the “efficacy (minimal compound concentration needed to increase TFEB nuclear/cytosol ratio by 25%)” value (TFEB) was “+ (“+” equals >25 μM)” and the “toxicity (compound concentration needed to induce greater than 50 percent of cell loss)” value (BEAS-2B cells) was “+ (cell loss of greater than 50 percent at a concentration that equals or is greater than 25 μM was represented as)”.

For CC(C)c1nc2ccc(Nc3nc(-c4ccncc4)nc4ncccc34)cc2s1 [Compound 130], the “efficacy (minimal compound concentration needed to increase TFEB nuclear/cytosol ratio by 25%)” value (TFEB) was “+++ (“+++” equals ≤1 μM)” and the “toxicity (compound concentration needed to induce greater than 50 percent of cell loss)” value (BEAS-2B cells) was “+ (cell loss of greater than 50 percent at a concentration that equals or is greater than 25 μM was represented as)”.

For Cc1nc2cc(Nc3nc(-c4ccncc4)nc4ccccc34)ccc2[nH]1 [Compound 29], the “efficacy (minimal compound concentration needed to increase TFEB nuclear/cytosol ratio by 25%)” value (TFEB) was “++ (“++” equals between ≤25 μM and >1 μM)” and the “toxicity (compound concentration needed to induce greater than 50 percent of cell loss)” value (BEAS-2B cells) was “+ (cell loss of greater than 50 percent at a concentration that equals or is greater than 25 μM was represented as)”.

In the case of Fc1cccc(Nc2nc(-c3ccncc3)nc3ccncc23)c1 [Compound 194], the “efficacy (minimal compound concentration needed to increase TFEB nuclear/cytosol ratio by 25%)” value (TFEB) is reported as “+++ (“+++” equals ≤1 μM)” and the “toxicity (compound concentration needed to induce greater than 50 percent of cell loss)” value (BEAS-2B cells) is reported as “+ (cell loss of greater than 50 percent at a concentration that equals or is greater than 25 μM was represented as)”.

For CCc1nc2ccc(Nc3nc(-c4ccncc4)nc4cc(OC)ccc34)cc2s1 [Compound 150], the “efficacy (minimal compound concentration needed to increase TFEB nuclear/cytosol ratio by 25%)” value (TFEB) was “+++ (“+++” equals ≤1 μM)” and the “toxicity (compound concentration needed to induce greater than 50 percent of cell loss)” value (BEAS-2B cells) was “++ (cell loss of greater than 50 percent at a concentration less than 25 μM and greater than 1 μM was represented as)”.

For c1ccc2c(Nc3cccc4[nH]nnc34)nc(-c3ccncc3)nc2c1 [Compound 101], the “efficacy (minimal compound concentration needed to increase TFEB nuclear/cytosol ratio by 25%)” value (TFEB) was “+ (“+” equals >25 μM)” and the “toxicity (compound concentration needed to induce greater than 50 percent of cell loss)” value (BEAS-2B cells) was “+ (cell loss of greater than 50 percent at a concentration that equals or is greater than 25 μM was represented as)”.

CC(C#N)CN(C)c1nc(-c2ccncc2)nc2ccccc12 (stereo not shown) [Compound 173] was tested, and the “efficacy (minimal compound concentration needed to increase TFEB nuclear/cytosol ratio by 25%)” value (TFEB) was “+ (“+” equals >25 μM)” and the “toxicity (compound concentration needed to induce greater than 50 percent of cell loss)” value (BEAS-2B cells) was “+ (cell loss of greater than 50 percent at a concentration that equals or is greater than 25 μM was represented as)”.

With c1ccc(CCNc2nc(-c3ccncc3)nc3ccccc23)nc1 [Compound 171] the “efficacy (minimal compound concentration needed to increase TFEB nuclear/cytosol ratio by 25%)” value (TFEB) was “+ (“+” equals >25 μM)” and the “toxicity (compound concentration needed to induce greater than 50 percent of cell loss)” value (BEAS-2B cells) was “+ (cell loss of greater than 50 percent at a concentration that equals or is greater than 25 μM was represented as)”.

For COc1cccc2nc(-c3ccncc3)nc(Nc3ccc4nc(C(C)C)sc4c3)c12 [Compound 152], the “efficacy (minimal compound concentration needed to increase TFEB nuclear/cytosol ratio by 25%)” value (TFEB) was “++ (“++” equals between ≤25 μM and >1 μM)” and the “toxicity (compound concentration needed to induce greater than 50 percent of cell loss)” value (BEAS-2B cells) was “+ (cell loss of greater than 50 percent at a concentration that equals or is greater than 25 μM was represented as)”.

In the case of FC(F)c1nc2ccc(Nc3nc(-c4ccncc4)nc4ccccc34)cc2s1 [Compound 92], the “efficacy (minimal compound concentration needed to increase TFEB nuclear/cytosol ratio by 25%)” value (TFEB) is reported as “++ (“++” equals between ≤25 μM and >1 μM)” and the “toxicity (compound concentration needed to induce greater than 50 percent of cell loss)” value (BEAS-2B cells) is reported as “+ (cell loss of greater than 50 percent at a concentration that equals or is greater than 25 μM was represented as)”.

With c1cc(Nc2nc(-c3ccncc3)nc3ccccc23)c2[nH]ccc2c1 [Compound 98] the “efficacy (minimal compound concentration needed to increase TFEB nuclear/cytosol ratio by 25%)” value (TFEB) was “+++ (“+++” equals ≤1 μM)” and the “toxicity (compound concentration needed to induce greater than 50 percent of cell loss)” value (BEAS-2B cells) was “+ (cell loss of greater than 50 percent at a concentration that equals or is greater than 25 μM was represented as)”.

For c1ccc2c(Nc3ccc4c(c3)NCCN4)nc(-c3ccncc3)nc2c1 [Compound 42], the “efficacy (minimal compound concentration needed to increase TFEB nuclear/cytosol ratio by 25%)” value (TFEB) was “+++ (“+++” equals ≤1 μM)” and the “toxicity (compound concentration needed to induce greater than 50 percent of cell loss)” value (BEAS-2B cells) was “+ (cell loss of greater than 50 percent at a concentration that equals or is greater than 25 μM was represented as)”.

In the case of O=C(c1cccc(F)c1)c1nc(-c2ccncc2)nc2ccccc12 [Compound 5], the “efficacy (minimal compound concentration needed to increase TFEB nuclear/cytosol ratio by 25%)” value (TFEB) is reported as “+ (“+” equals >25 μM)” and the “toxicity (compound concentration needed to induce greater than 50 percent of cell loss)” value (BEAS-2B cells) is reported as “+ (cell loss of greater than 50 percent at a concentration that equals or is greater than 25 μM was represented as)”.

With CC(C)(C)c1cc2cc(Nc3nc(-c4ccncc4)nc4ccncc34)ccc2[nH]1 [Compound 124] the “efficacy (minimal compound concentration needed to increase TFEB nuclear/cytosol ratio by 25%)” value (TFEB) was “+++ (“+++” equals ≤1 μM)” and the “toxicity (compound concentration needed to induce greater than 50 percent of cell loss)” value (BEAS-2B cells) was “+ (cell loss of greater than 50 percent at a concentration that equals or is greater than 25 μM was represented as)”.

For c1cc(-c2cc3cnccc3c(Nc3ccc4[nH]ccc4c3)n2)ccn1 [Compound 397], the “efficacy (minimal compound concentration needed to increase TFEB nuclear/cytosol ratio by 25%)” value (TFEB) was “++ (“++” equals between ≤25 μM and >1 μM)” and the “toxicity (compound concentration needed to induce greater than 50 percent of cell loss)” value (BEAS-2B cells) was “+ (cell loss of greater than 50 percent at a concentration that equals or is greater than 25 μM was represented as)”.

In the case of Cn1c(=O)c2ccccc2n(CC(=O)Nc2ccccc2)c1=O [Compound 224], the “efficacy (minimal compound concentration needed to increase TFEB nuclear/cytosol ratio by 25%)” value (TFEB) is reported as “+ (“+” equals >25 μM)” and the “toxicity (compound concentration needed to induce greater than 50 percent of cell loss)” value (BEAS-2B cells) is reported as “+ (cell loss of greater than 50 percent at a concentration that equals or is greater than 25 μM was represented as)”.

For Fc1cc(Nc2nc(-c3ccncc3)nc3ccccc23)cc(C(F)(F)F)c1 [Compound 18], the “efficacy (minimal compound concentration needed to increase TFEB nuclear/cytosol ratio by 25%)” value (TFEB) was “+ (“+” equals >25 μM)” and the “toxicity (compound concentration needed to induce greater than 50 percent of cell loss)” value (BEAS-2B cells) was “+ (cell loss of greater than 50 percent at a concentration that equals or is greater than 25 μM was represented as)”.

In the case of c1ccc2c(Nc3ccc4cnccc4c3)nc(-c3ccncc3)nc2c1 [Compound 14], the “efficacy (minimal compound concentration needed to increase TFEB nuclear/cytosol ratio by 25%)” value (TFEB) is reported as “+ (“+” equals >25 μM)” and the “toxicity (compound concentration needed to induce greater than 50 percent of cell loss)” value (BEAS-2B cells) is reported as “+ (cell loss of greater than 50 percent at a concentration that equals or is greater than 25 μM was represented as)”.

For Cc1cc2c(F)c(Nc3nc(-c4ccncc4)nc4ccccc34)ccc2[nH]1 [Compound 30], the “efficacy (minimal compound concentration needed to increase TFEB nuclear/cytosol ratio by 25%)” value (TFEB) was “+++ (“+++” equals ≤1 μM)” and the “toxicity (compound concentration needed to induce greater than 50 percent of cell loss)” value (BEAS-2B cells) was “+++ (cell loss of greater than 50 percent at a concentration that equals or is less than 1 μM was represented as “+++.”)”.

With Fc1cccc(Nc2nc(-c3ccncc3)cc3ncccc23)c1 [Compound 245] the “efficacy (minimal compound concentration needed to increase TFEB nuclear/cytosol ratio by 25%)” value (TFEB) was “+++ (“+++” equals ≤1 μM)” and the “toxicity (compound concentration needed to induce greater than 50 percent of cell loss)” value (BEAS-2B cells) was “+ (cell loss of greater than 50 percent at a concentration that equals or is greater than 25 μM was represented as)”.

c1cc(-c2nc(Nc3ccc4c(c3)OCO4)c3cnccc3n2)ccn1 [Compound 123] was tested, and the “efficacy (minimal compound concentration needed to increase TFEB nuclear/cytosol ratio by 25%)” value (TFEB) was “++ (“++” equals between ≤25 μM and >1 μM)” and the “toxicity (compound concentration needed to induce greater than 50 percent of cell loss)” value (BEAS-2B cells) was “+ (cell loss of greater than 50 percent at a concentration that equals or is greater than 25 μM was represented as)”.
